Tests used:
[1] = weight loss products; cited from earlier work
[2] = test system: HFD-fed obese mice; assay: Liver and kidney histology (H&E); format: in vivo; conditions: 100 μg/kg i.p., three weeks
[3] = test system: aspartate transaminase (AST); assay: Serum AST by ELISA; format: in vivo; conditions: HFD-fed obese mice; 100 μg/kg i.p., three weeks
Protocol: (§1) To investigate the effect of celastrol administration on liver function, serum levels of alanine transaminase (ALT) and aspartate transaminase (AST) were measured in mice following three weeks of celastrol treatment (100 μg/kg, i.p.). ALT and AST were measured using an enzyme-linked immunosorbent assay (ELISA) kit (from Bio Scientific).

[4] = test system: mice; assay: Locomotor activity (Comprehensive Lab Animal Monitoring System); format: in vivo
Protocol: FIGS. 16A and 16B are graphs showing x (FIG. 16A) and y (FIG. 16B) direction ambulatory motion for control and celastrol in dark and light cycles. Toxicity was evaluated using Columbus Instruments Comprehensive Lab Animal Monitoring System we have measure the locomotor activity of the animals.
Locomotor activity was also normal in celastrol-treated mice. This is consistent with celastrol not having a toxic effect causing anorexia and weight loss, since the latter would be associated with decreased locomotor activity.
FIGS. 16A and 16B are graphs showing x (FIG. 16A) and y (FIG. 16B) direction ambulatory motion for control and celastrol in dark and light 2 cycles. Toxicity was evaluated using Columbus Instruments Comprehensive Lab Animal Monitoring System we have measure the locomotor activity of the animals.

[5] = test system: alanine transaminase (ALT); assay: Serum ALT by ELISA; format: in vivo; conditions: HFD-fed obese mice; 100 μg/kg i.p., three weeks
Protocol: as §1

[6] = test system: lean mice; assay: Leptin injection upon acute celastrol treatment, lean mice; format: in vivo; conditions: 6-hour time point, leptin 10 mg/kg i.p., DMSO or celastrol 100 μg/kg i.p. pretreatment
Protocol: (§2) It was therefore hypothesized that celastrol exerts anti-obesity effects through increasing leptin sensitivity in the brains of the HFD-fed obese mice. To test this hypothesis, leptin was administered to celastrol- or vehicle-treated HFD-fed obese animals. To avoid any possible leptin sensitizing effect of weight loss or decreased food intake created by celastrol administration, leptin injections were carried out upon acute celastrol treatment as described below.
(§3) Lean and HFD-fed obese mice were divided into four groups: 1) DMSO+saline, 2) DMSO+leptin, 3) celastrol+saline, and 4) celastrol+leptin (n=3 per group). Mice were injected (i.p.) with 100 μg/kg celastrol or vehicle (DMSO) one hour before dark cycle (day zero). 24 hours later, mice were injected for a second time with celastrol or DMSO (day 1), and all animals were then taken to 24 hour-fasting. On day two, at 21 hours of fasting, mice received a final injection of DMSO or celastrol. 30 minutes prior to dark cycle, at 23.5 hour of fasting, mice received a single i.p. injection of leptin (10 mg/kg, dissolved in saline), or saline. […] 1, 3, 6, 15, and 24-hour food intake and 24-hour body weight changes were recorded (FIG. 7A). […] This is clearly evident when food intake of the celastrol-treated mice is calculated in percent values (FIG. 7B). […]

[7] = test system: HFD-fed obese mice; assay: Leptin injection upon acute celastrol treatment, HFD-fed obese mice; format: in vivo; conditions: leptin 10 mg/kg i.p.
Protocol: as §2, §3

[Cr] [Chromium]
Safety [1]: Likely safe

CC1=C(O)C(=O)C=C2C1=CC=C1[C@@]2(C)CC[C@@]2(C)[C@@H]3C[C@](C)(C(=O)O)CC[C@]3(C)CC[C@]12C [celastrol]
kidney morphology [2]: no detectable change | serum AST level [3]: decreases | locomotor activity ([4]; celastrol-treated mice): normal | x and y direction ambulatory motion counts ([4]; dark and light cycles, celastrol versus control): not significantly different | serum ALT level [5]: decreases

Conjugated linoleic acid [Conjugated linoleic acid (CLA)]
Effectiveness [1]: Possibly effective | Safety [1]: Possibly safe

leptin: peptide hormone, afferent signal in a negative feedback loop regulating food intake and body weight
decrease in food intake upon leptin injection [6]: approximately 40% | decrease in food intake upon leptin injection ([7]; 6-hour time point, DMSO or celastrol 100 μg/kg i.p. pretreatment): approximately 40% | 24-hour body weight change ([7]; 24 hour ad libitum feeding after 24-hour fasting, celastrol 100 μg/kg i.p.): resistant

Source: US20150274634A1, “COMPOUNDS FOR THE TREATMENT OF OBESITY AND METHODS OF USE THEREOF” (The Children's Medical Center Corporation, priority 2014, published 2015)
